Measured values reported in patent US20230150951A1, “2,5- OR 2,6-DISUBSTITUTED HYDROQUINONE DERIVATIVES WITH AT LEAST ONE CARBOXY, SULFO OR AMIDO GROUP USEFUL AS MEDICAMENTS” (OM PHARMA SA, priority 2020, published 2023).
Entries after “also recorded” stand apart in the source; their conditions may differ.

Tested on: acute pancreatitis murine model
Assay: Caerulein-induced acute pancreatitis murine model
Type: in vivo, Balb/c mice
Design: Serum IL33 level / Serum TGF-B level: unit not given here
Settings: for Mean terminal BW (% of initial) / Mean terminal pancreas weight / Schmidt Score (H&E) / Pancreas IL33 level / Pancreas MPO activity / Pancreas TGF-B level / Serum IL33 level / Serum TGF-B level / Serum amylase level / Serum lipase level / Acinar cell necrosis (group mean score) / Haemorrhage (group mean score) / Interstitial oedema (group mean score) / Leukocyte infiltration (group mean score) / Pancreas histopathology observations (H&E): 1st experiment, 15 mg/kg IV, Ib-010a and IVc-059a 150 mg/kg PO, Pirfenidone 40 mg/kg IV; for Mean terminal BW (% of initial) / Mean terminal pancreas weight / Schmidt Score (H&E) / Acinar cell necrosis (group mean score) / Haemorrhage (group mean score) / Interstitial oedema (group mean score) / Leukocyte infiltration (group mean score) / Pancreas histopathology observations (H&E): caerulein induced; for Schmidt Score (H&E): induced + vehicle = 10, non-induced = 0; for Pancreas IL33 level / Pancreas MPO activity / Pancreas TGF-B level: terminal pancreatic tissue; for Serum IL33 level / Serum TGF-B level / Serum amylase level / Serum lipase level: terminal serum; for pancreatic tissue levels of IL33: compared to the induced group
Method: Therapeutic efficacy of the compounds according to the present invention was assessed on an acute pancreatitis murine model. Tissue samples were obtained to allow post in-life analysis of pancreatitis parameters. Plasma samples were also obtained to assess animal exposure levels after administration of the compounds.
Animals: A total of 70 female Balb/c mice aged 8-10 weeks weighing approximately 20-25 g were used for the study (Charles River). After 7 days acclimatization, they were allocated into the different groups. […] Cages, bedding, and water were sanitized before use. Animals were provided with Corn-o-cobs enrichment bedding to provide environment enrichment and nesting material. […] The animal holding room were maintained as follows—room temperature at 20-24° C., humidity at 30-70% and a 12 h light/dark cycle used. Although animals used in this study were immuno-competent, preparation of dosing solutions and dosing/weighing of animals were carried out in a sterile biosafety cabinet.
Final formulation was in 5% DMSO, 10% Solutol, 10% PEG400, 75% 0.9% Saline and pH adjusted to 7 with 0.5M NaOH solution.
Final formulation is in 5% DMSO, 10% Solutol, 10% PEG400, 75% 0.9% Saline and pH adjusted to 7 with 0.5M NaOH solution. For per os (PO) dosing IVc-059a is formulated in water. Drug solutions were formulated on the day of dosing.
The purposes of this study were to assess efficacy compounds in an acute pancreatitis model (14 days), generate tissue samples to allow post in-life analysis of pancreatitis parameters and generate four plasma samples to assess animal exposure levels after first and last injection obtained from blood samples taken 1 h and 24 h after first and last injection.
Study Design: On the first study day animals were randomly be assigned to treatment groups, ensuring an equal spread of bodyweight. Mice (except negative control group) were treated with test compounds were given 5 minutes prior to caerulein dosing, followed by injection with caerulein at […] via intraperitoneal route (IP) daily during the study.
Treatment of test compounds were given 5 minutes prior to caerulein dosing.
Sampling and post in-life analyses: at times indicated above a whole blood sample (60 μl) were taken from the lateral tail vein into tubes coated with K2-EDTA. Plasma samples were prepared and stored frozen at −20° C. Plasma samples were sent to client bioanalysis provider Eurofins (FR) for quantification of compound.
Terminal Sampling: Prior to termination animals were weighed. Terminal study animals were culled via CO2 inhalation. A terminal blood sample was taken via cardiac puncture and plasma prepared. Lipase and Amylase activities were measured via ELISA using commercially available ELISA kits. Remaining plasma was stored for future cytokine analyses. Pancreas tissue was resected and weighed, and a section ([…]) snap frozen and analysed for quantification of compound in pancreas sample. A section ([…]) was processed for measurement of MPO activity, IL-33 and TGF-B levels via ELISA. The remainder was fixed in formalin and embedded in paraffin wax. H&E staining was carried out and section assessed using Schmidts standard scoring system, examining: edema, inflammatory infiltration, parenchymal necrosis, haemorrhage. Massons' Trichrome staining was carried out and area covered by fibrotic tissue quantified digitally using QuPath software. Terminal serum samples was used to assess blood chemistry using an IdeXX CHEM15 and LYTE4 clip (4 animals per treatment group).
Histopathology assessment of pancreatic injury based on 4 criteria: Oedema, Inflammatory infiltration, Parenchymal necrosis, Haemorrhage and scored as described below.
Schmidt score is the evaluation of the efficacy of the compounds based on the four histopathology criteria as described in the table below.

[1] = second experiment, IV, 15 mg/kg, Pirfenidone 100 mg/kg

Row | SMILES | Amylase [1] [mU/mL] | IL-33 [1] [ng/mL] | Lipase [1] [mU/mL] | Mean terminal BW (% of initial) | Mean terminal pancreas weight [g] | Schmidt Score (H&E) | Pancreas IL33 level | Pancreas MPO activity | Pancreas TGF-B level | Serum IL33 level | Serum TGF-B level | Serum amylase level | Serum lipase level | pancreatic tissue levels of IL33 (first experiment, IV) | Acinar cell necrosis (group mean score) | Haemorrhage (group mean score) | Interstitial oedema (group mean score) | Leukocyte infiltration (group mean score) | Pancreas histopathology observations (H&E) | TGF-B levels in pancreas (first experiment, IV) | also measured
1 | O=C(Nc1ccccc1-c1nnn[nH]1)c1cc(O)c(C(=O)Nc2ccccc2-c2nnn[nH]2)cc1O [Ic-001aTz2, N1,N4-bis(2-(1H-tetrazol-5-yl)phenyl)-2,5-dihydroxyterephthalamide] | 50.912 | 493 ± 126 | 8.305 | – | – | – | – | – | – | – | – | – | – | – | – | – | – | – | – | – | MPO [1]: 2.63 ± 0.63 U/mg; Schmidt Score [1]: 3.9 ± 0.8; TGF-B [1]: 696 ± 448 ng/mL; Trichome staining (Fibrosis % area) [1]: 1.366 ± 0.562 % area
2 | O=C(O)c1cc(O)c(C(=O)Nc2ccccc2-c2nnn[nH]2)cc1O [Ia-001a-Tz, 4-(2-(1H-tetrazol-5-yl)phenyl-aminocarbonyl)-2,5-dihydroxybenzoic acid] | – | – | – | 89.1 % of initial | 0.084 | 5.9 | 154 ± 49 | 2.68 | 507 ± 289 | 37.02 | 8.69 | 35.35 | 8.57 | significant decrease | – | – | – | – | – | – | –
3 | O=C(O)c1cc(NC(=O)c2cc(O)c(C(=O)O)cc2O)cc(NC(=O)c2cc(O)c(C(=O)O)cc2O)c1 [Ib-010a, 3,5-bis(2,5-dihydroxy-4-carboxybenzoylamino)benzoic acid] | – | – | – | 91 % of initial | 0.091 | 6.3 | 157 ± 70 | 1.83 | 219 ± 140 | 35.36 | 6.87 | 37.46 | 9.06 | significant decrease | 1.0 | 0.8 | 1.5 | 3.0 | Oedema observed throughout pancreas and within; also recorded: Mild haemorrhage observed; also recorded: Mild acinar cell necrosis observed; also recorded: Leukocyte infiltration observed; also recorded: Disruption to the basophilic region | decreased significantly | –
4 | O=C(O)c1cc(O)cc(CS(=O)(=O)Cc2cc(O)cc(C(=O)O)c2O)c1O [IVc-059a, 3-((2,5-Dihydroxy-3-carboxyphenyl)methylsulfonylmethyl)-2,5-dihydroxybenzoic acid] | 41.149 | 215 ± 84 | 4.324 | 93.3 % of initial | 0.09 | 4.0 | 86 ± 23 | 2.88 | 231 ± 199 | 46.54 | 5.69 | 38.56 | 10.21 | significant decrease | 1.0 | 1.0 | 1.0 | 1.0 | Mild oedema less observed; also recorded: Mild haemorrhage less observed; also recorded: Mild acinar cell necrosis observed; also recorded: Mild leukocyte infiltration observed; also recorded: Some pancreatic islet hyperplasia observed; also recorded: Disruption to the basophilic region | decreased significantly | Global Schmidt score (first experiment, vs caerulein control animals): especially improved; Schmidt Score (second experiment, H&E sections): lower scores than the positive control pirfenidone; MPO [1]: 1.813 ± 0.405 U/mg; Schmidt Score [1]: 10.63 ± 2.33; TGF-B [1]: 403 ± 84 ng/mL; Trichome staining (Fibrosis % area) [1]: 1.048 ± 0.449 % area; Lipase activity in serum (second experiment, pirfenidone 100 mg/kg, compounds 15 mg/k, vs vehicle treated animals): significantly lower than that in vehicle treated animals; MPO activity in pancreatic tissue (second experiment, vs induced vehicle treated controls): significantly lower than induced vehicle treated controls
5 | O=C(O)c1cc(NC(=O)c2cc(O)c(C(=O)Nc3ccc(O)c(C(=O)O)c3)cc2O)ccc1O [Ic-007a, 5-(4-(3-carboxy-4-hydroxyphenylaminocarbonyl)-2,5-dihydroxybenzamido)-2-hydroxy benzoic acid] | – | – | – | 91.2 % of initial | 0.109 | 6.0 | 147 ± 47 | 1.65 | 188 ± 77 | 34.93 | 6.17 | 34.86 | 9.28 | significant decrease | 1.0 | 1.0 | 1.0 | – | Mild oedema observed; also recorded: Mild haemorrhage observed; also recorded: Mild acinar cell necrosis observed; also recorded: Leukocyte infiltration observed; also recorded: Disruption to the basophilic region | decreased significantly | –
6 | O=C(O)c1cc(O)c(C(=O)Nc2ccccc2C(=O)O)cc1O [Ia-001a, 4-(2-carboxyphenylaminocarbonyl)-2,5-dihydroxybenzoic acid] | – | – | – | 90.3 % of initial | 0.083 | 6.3 | 330 ± 162 | 3.76 | 592 ± 358 | 39.52 | 8.69 | 34.07 | 6.72 | significant decrease | 0.9 | 1.1 | 1.3 | 3.0 | Oedema observed throughout pancreas; also recorded: Haemorrhage observed; also recorded: Mild acinar cell less necrosis observed; also recorded: Leukocyte infiltration throughout; also recorded: Abnormal islet morphology observed; also recorded: Disruption to the basophilic region | – | –
